Laboratory results published in PMC10709440, “High-throughput ligand profile characterization in novel cell lines expressing seven heterologous insect olfactory receptors for the detection of volatile plant biomarkers” (Scientific Reports, 2023).
Where two headings read alike, the source gives them in different places.

Key:
Drosophila OR85b = molecular target: T1, Drosophila OR85b (Drosophila melanogaster, UniProt Q9VHQ7); experiment: Calcium ion fluorescence (GCaMP6) assay, OR85b stable HEK293 cell line; format: cell-based; design: key to DF norm AVERAGE OR85b: VOC ∆F divided by the plate's mean ∆F response to 50 µM VUAA1; details: for Average response: VUAA1-normalized response, mean of biological replicates; for activation at 1 µM / activation at 10 µM / activation at 100 µM: HEK293, read-out: OR85b response (VUAA1-normalized response)
T1 construct: expressed in transfected cells
T1 sequence (Q9VHQ7 1-390): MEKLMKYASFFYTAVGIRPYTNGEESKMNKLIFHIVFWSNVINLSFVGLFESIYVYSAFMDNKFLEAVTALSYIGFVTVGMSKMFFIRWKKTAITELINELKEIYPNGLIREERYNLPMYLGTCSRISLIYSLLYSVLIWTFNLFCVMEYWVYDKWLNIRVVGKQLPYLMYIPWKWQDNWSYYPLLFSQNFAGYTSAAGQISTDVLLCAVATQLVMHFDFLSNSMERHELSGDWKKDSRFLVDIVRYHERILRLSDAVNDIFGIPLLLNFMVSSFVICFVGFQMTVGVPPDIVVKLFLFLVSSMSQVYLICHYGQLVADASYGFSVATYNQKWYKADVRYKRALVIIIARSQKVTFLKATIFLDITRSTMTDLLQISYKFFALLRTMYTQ
T1 sequence (Q9VNB5 1-486 partner): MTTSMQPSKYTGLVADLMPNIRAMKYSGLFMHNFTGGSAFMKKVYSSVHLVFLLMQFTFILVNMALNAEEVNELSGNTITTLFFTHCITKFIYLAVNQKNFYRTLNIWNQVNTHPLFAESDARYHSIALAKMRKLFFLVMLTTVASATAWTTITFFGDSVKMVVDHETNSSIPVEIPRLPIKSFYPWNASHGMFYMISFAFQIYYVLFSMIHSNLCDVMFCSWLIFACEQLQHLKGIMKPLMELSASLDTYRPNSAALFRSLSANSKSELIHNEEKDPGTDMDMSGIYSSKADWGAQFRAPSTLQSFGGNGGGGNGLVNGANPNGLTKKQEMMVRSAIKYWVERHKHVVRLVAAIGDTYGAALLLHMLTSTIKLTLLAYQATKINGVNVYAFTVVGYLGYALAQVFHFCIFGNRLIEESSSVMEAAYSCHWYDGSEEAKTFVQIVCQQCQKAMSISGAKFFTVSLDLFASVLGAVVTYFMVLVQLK
In short: (§1)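 HEK293 lines stably expressing each Drosophila OR with GCaMP6, doxycycline-induced (1 μg/mL) 48 or 72 h. Fluorescence recorded 5 s baseline then 30 s after VOC injection at pH 7.3; ΔF=(FMAX−F0)/F0, normalized to 50 µM VUAA1 response per line, triplicate wells averaged; concentration series 0.01–100 μM.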

Drosophila OR98a = molecular target: T2, Drosophila OR98a (Drosophila melanogaster, UniProt Q9VAZ3); experiment: Calcium ion fluorescence (GCaMP6) assay, OR98a stable HEK293 cell line; format: cell-based; design: key to DF norm AVERAGE OR98a: VOC ∆F divided by the plate's mean ∆F response to 50 µM VUAA1; details: for OR98a Average response (VUAA1-normalized): 50 μM VUAA1 = 1; for Average response: average of biological replicates, fraction of VUAA1 response
T2 construct: expressed in transfected cells
T2 sequence (Q9VAZ3 1-397): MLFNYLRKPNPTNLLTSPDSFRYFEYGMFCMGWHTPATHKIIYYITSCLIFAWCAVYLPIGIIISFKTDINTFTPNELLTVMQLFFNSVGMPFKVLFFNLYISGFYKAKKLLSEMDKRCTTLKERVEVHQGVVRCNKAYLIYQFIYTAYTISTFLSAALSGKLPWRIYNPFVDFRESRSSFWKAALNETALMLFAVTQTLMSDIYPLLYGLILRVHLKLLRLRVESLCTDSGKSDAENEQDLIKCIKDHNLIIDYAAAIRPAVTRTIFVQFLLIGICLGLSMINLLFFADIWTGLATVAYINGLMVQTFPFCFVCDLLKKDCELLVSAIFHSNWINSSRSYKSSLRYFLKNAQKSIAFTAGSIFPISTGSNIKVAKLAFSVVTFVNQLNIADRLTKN
T2 sequence (Q9VNB5 1-486 partner): T1 sequence (Q9VNB5 1-486 partner)
In short: as §1

[1] = ligand concentration 1 (unit not given), threshold 0.05, below shown as 0
[2] = ligand concentration 10 (unit not given), threshold 0.05, below shown as 0
[3] = ligand concentration 100 (unit not given), threshold 0.05, below shown as 0
[4] = HEK293, read-out: Average response
[5] = concentration 1, normalized fluorescence change, values below 0.05 threshold given as 0
[6] = concentration 10, normalized fluorescence change, values below 0.05 threshold given as 0
[7] = concentration 100, normalized fluorescence change, values below 0.05 threshold given as 0
[8] = HEK293, read-out: OR98a Average response (VUAA1-normalized)
[9] = HEK293, read-out: OR98a response (VUAA1-normalized response)

CC(C)=CCC/C(C)=C/CC/C(C)=C/CO [e,e-farnesol]
Average response (Drosophila OR85b; OR85b cell line, cc. 1 µM): 0.053
Average response (Drosophila OR85b; OR85b cell line, cc. 10 µM): 0.08
Average response (Drosophila OR85b; OR85b cell line, cc. 100 µM): 0.00
OR85b response (VUAA1-normalized response) (Drosophila OR85b; VOC concentration 1 μM): 0.053
OR85b response (VUAA1-normalized response) (Drosophila OR85b; VOC concentration 10 μM): 0.08
OR85b response (VUAA1-normalized response) (Drosophila OR85b; VOC concentration 100 μM): 0.00
DF norm AVERAGE OR85b (Drosophila OR85b; [1]): 0.05296
DF norm AVERAGE OR85b (Drosophila OR85b; [2]): 0.07925
DF norm AVERAGE OR85b (Drosophila OR85b; [3]): 0
OR98a Average response (VUAA1-normalized) (Drosophila OR98a; 1 μM VOC): 0.02
OR98a Average response (VUAA1-normalized) (Drosophila OR98a; 10 μM VOC): 0.07
OR98a Average response (VUAA1-normalized) (Drosophila OR98a; 100 μM VOC): 0.10
OR98a response (VUAA1-normalized response) (Drosophila OR98a; VOC concentration 1 μM): 0.00
OR98a response (VUAA1-normalized response) (Drosophila OR98a; VOC concentration 10 μM): 0.07
OR98a response (VUAA1-normalized response) (Drosophila OR98a; VOC concentration 100 μM): 0.10
Average response (Drosophila OR98a; cc. 1 µM, OR98a cell line): 0.017
Average response (Drosophila OR98a; cc. 10 µM, OR98a cell line): 0.07
Average response (Drosophila OR98a; cc. 100 µM, OR98a cell line): 0.10
DF norm AVERAGE OR98a (Drosophila OR98a; [1]): 0
DF norm AVERAGE OR98a (Drosophila OR98a; [2]): 0.07127
DF norm AVERAGE OR98a (Drosophila OR98a; [3]): 0.09839

Cc1ccc(C)cc1 [p-xylene]
OR85b response (VUAA1-normalized) at 1 μM (Drosophila OR85b; OR85b cell line, VOC concentration 1 μM): 0.00
OR85b response (VUAA1-normalized) at 10 μM (Drosophila OR85b; OR85b cell line, VOC concentration 10 μM): 0.15
OR85b response (VUAA1-normalized) at 100 μM (Drosophila OR85b; OR85b cell line, VOC concentration 100 μM): 0.06
Average response (Drosophila OR85b; OR85b cell line, cc. 1 µM): 0.0373
Average response (Drosophila OR85b; OR85b cell line, cc. 10 µM): 0.15
Average response (Drosophila OR85b; OR85b cell line, cc. 100 µM): 0.06
DF norm AVERAGE OR85b (Drosophila OR85b; [1]): 0
DF norm AVERAGE OR85b (Drosophila OR85b; [2]): 0.1515
DF norm AVERAGE OR85b (Drosophila OR85b; [3]): 0.06066
activation at 1 µM (Drosophila OR98a; [4]): 0%
activation at 10 µM (Drosophila OR98a; [4]): 2.51%
activation at 100 µM (Drosophila OR98a; [4]): 4%
OR98a response (VUAA1-normalized) at 1 μM (Drosophila OR98a; OR98a cell line, VOC concentration 1 μM): 0.00
OR98a response (VUAA1-normalized) at 10 μM (Drosophila OR98a; OR98a cell line, VOC concentration 10 μM): 0.00
OR98a response (VUAA1-normalized) at 100 μM (Drosophila OR98a; OR98a cell line, VOC concentration 100 μM): 0.00
DF norm AVERAGE OR98a (Drosophila OR98a; [1]): 0
DF norm AVERAGE OR98a (Drosophila OR98a; [2]): 0
DF norm AVERAGE OR98a (Drosophila OR98a; [3]): 0

C=CC(O)CCCCC (stereo not drawn) [1-octen-3-ol]
activation at 1 µM (Drosophila OR85b): 0%
activation at 10 µM (Drosophila OR85b): 0%
activation at 100 µM (Drosophila OR85b): 8%
Average response (Drosophila OR85b; OR85b cell line, cc. 1 µM): 0.00
Average response (Drosophila OR85b; OR85b cell line, cc. 10 µM): 0.0043
Average response (Drosophila OR85b; OR85b cell line, cc. 100 µM): 0.08
DF norm AVERAGE OR85b (Drosophila OR85b; [5]): 0
DF norm AVERAGE OR85b (Drosophila OR85b; [6]): 0
DF norm AVERAGE OR85b (Drosophila OR85b; [7]): 0.08325
activation at 1 µM (Drosophila OR98a; [4]): 0%
activation at 10 µM (Drosophila OR98a; [4]): 1.13%
activation at 100 µM (Drosophila OR98a; [4]): 21%
activation at 1 µM (Drosophila OR98a; [8]): 0%
activation at 10 µM (Drosophila OR98a; [8]): 1%
activation at 100 µM (Drosophila OR98a; [8]): 21%
activation at 1 µM (Drosophila OR98a; [9]): 0%
activation at 10 µM (Drosophila OR98a; [9]): 0%
activation at 100 µM (Drosophila OR98a; [9]): 21%
DF norm AVERAGE OR98a (Drosophila OR98a; [5]): 0
DF norm AVERAGE OR98a (Drosophila OR98a; [6]): 0
DF norm AVERAGE OR98a (Drosophila OR98a; [7]): 0.2102

CCc1ccccc1 [ethylbenzene]
activation at 1 µM (Drosophila OR85b): 0%
activation at 10 µM (Drosophila OR85b): 0%
activation at 100 µM (Drosophila OR85b): 0%
Average response (Drosophila OR85b; OR85b cell line, cc. 1 µM): 0.00719
Average response (Drosophila OR85b; OR85b cell line, cc. 10 µM): 0.00
Average response (Drosophila OR85b; OR85b cell line, cc. 100 µM): 0.00
DF norm AVERAGE OR85b (Drosophila OR85b; [1]): 0
DF norm AVERAGE OR85b (Drosophila OR85b; [2]): 0
DF norm AVERAGE OR85b (Drosophila OR85b; [3]): 0
activation at 1 µM (Drosophila OR98a; [4]): 0%
activation at 10 µM (Drosophila OR98a; [4]): 12%
activation at 100 µM (Drosophila OR98a; [4]): 0%
activation at 1 µM (Drosophila OR98a; [9]): 0%
activation at 10 µM (Drosophila OR98a; [9]): 12%
activation at 100 µM (Drosophila OR98a; [9]): 0%
DF norm AVERAGE OR98a (Drosophila OR98a; [1]): 0
DF norm AVERAGE OR98a (Drosophila OR98a; [2]): 0.1169
DF norm AVERAGE OR98a (Drosophila OR98a; [3]): 0

CCCCCC(=O)CC [3-octanone]
activation at 1 µM (Drosophila OR85b): 0%
activation at 10 µM (Drosophila OR85b): 0%
activation at 100 µM (Drosophila OR85b): 9%
Average response (Drosophila OR85b; OR85b cell line, cc. 1 µM): 0.00
Average response (Drosophila OR85b; OR85b cell line, cc. 10 µM): 0.00
Average response (Drosophila OR85b; OR85b cell line, cc. 100 µM): 0.09
DF norm AVERAGE OR85b (Drosophila OR85b; [5]): 0
DF norm AVERAGE OR85b (Drosophila OR85b; [6]): 0
DF norm AVERAGE OR85b (Drosophila OR85b; [7]): 0.08805
activation at 1 µM (Drosophila OR98a; [4]): 0%
activation at 10 µM (Drosophila OR98a; [4]): 0%
activation at 100 µM (Drosophila OR98a; [4]): 16%
activation at 1 µM (Drosophila OR98a; [8]): 0%
activation at 10 µM (Drosophila OR98a; [8]): 0%
activation at 100 µM (Drosophila OR98a; [8]): 16%
activation at 1 µM (Drosophila OR98a; [9]): 0%
activation at 10 µM (Drosophila OR98a; [9]): 0%
activation at 100 µM (Drosophila OR98a; [9]): 16%
DF norm AVERAGE OR98a (Drosophila OR98a; [5]): 0
DF norm AVERAGE OR98a (Drosophila OR98a; [6]): 0
DF norm AVERAGE OR98a (Drosophila OR98a; [7]): 0.1573
